Results taken from patent publication US10092620B2, “Uses of cyclic peptides for treating and preventing atherosclerosis” (THE SCRIPPS RESEARCH INSTITUTE, priority 2013, dated 2018).
“Also recorded” adds a separate entry of the source. Non-standard residues stand in square brackets, D forms with d. Residues, ends and D or L forms follow the SMILES beside them.

System: mouse macrophage J774 cells
Test: cholesterol efflux from mouse macrophage cells incubated with peptide-treated human plasma
Format: cell-based
Protocol: Selected cyclic D,L-α-peptides were further evaluated for their ability to promote cellular cholesterol efflux from mouse macrophage J774 cells. A main factor for HDL anti-atherogenicity is its role in reverse cholesterol transport, of which cellular cholesterol efflux is a critical component. To measure efflux mediated by the cyclic D,L-α-peptides, cholesterol-laden cells were incubated with peptide-treated plasma for 4 h, after which the level of cholesterol effluxed to the media was measured as described in Sankaranarayanan et al., J. Lipid Res. 52, 2332-2340, 2011.
Preparation of labeling medium: These procedures were modified from that reported in Sankaranarayanan et al., J. Lipid Res. 52, 2332-2340, 2011. The labeling medium was prepared by complexing the unlabeled cholesterol and BODIPY-cholesterol (20% of the total cholesterol) with methyl-β-cyclodextrin (CD) at a molar ratio of 1:40 (total cholesterol/CD). Unlabeled cholesterol and BODIPY-cholesterol were dissolved in chloroform and dried in a round bottom flask by rotor-evaporation in the dark to form a thin film. The cholesterol mixture was solubilized by adding 20 mM CD in MEM-HEPES buffer. The suspension was sonicated in a water bath (37° C.) for at 1 h, stirred at 37° C. for 3 h, filtered using a 0.45-μm syringe filter, and diluted with an equal volume of MEM-HEPES buffer containing 4 μg/mL Sandoz ACAT (acyl-CoA:cholesterol acyltransferase) inhibitor (Sigma). The final concentrations of BODIPY-cholesterol, unlabeled cholesterol, CD, and ACAT inhibitor in the labeling medium were 0.025 mM, 0.1 mM, 10 mM, and […], respectively.
Preparation of efflux medium: Just before the initiation of the efflux assays, the human plasma frozen at −80° C. was thawed, and 80 μL of plasma was incubated with 20 μL of cyclic peptide stocks (peptide stocks were 1-3 mg/mL in 10% sucrose) or the vehicle (10% sucrose) at 37° C. for 30 min. The treated plasma samples (100 μL) were then incubated with 25% PEG 8000 solution in 200 mM glycine buffer, pH 8.5 (40 μL) to precipitate apoB-containing lipoproteins (Asztalos et al., J. Lipid Res. 46, 2246-2253, 2005). After a 15-min incubation, the precipitate was removed by high-speed centrifugation (13,000 rpm, 10 min, 4° C.), and the supernatant (60 μL) was immediately diluted with MEM-HEPES buffer (1.5 mL) to give ˜2% whole plasma. This solution, containing the peptide remodeled-HDL lipoprotein fraction as cholesterol acceptors, was used as the efflux medium.
Cholesterol efflux from mouse macrophage cells: Mouse macrophage J774A.1 cells (TIB-67; American Type Culture Collection, Manassas, Va.) were seeded in 12-well culture plate at 3×10^5 cells/mL and cultured to 80-90% confluency in DMEM with 10% FBS at 5% CO2. Cells were rinsed twice with MEM-HEPES, incubated for 1 h with 0.25 ml of labeling medium containing CD/BODIPY-cholesterol/unlabeled cholesterol and 2 μg/mL Sandoz ACAT inhibitor, followed by washing twice with MEM-HEPES. The cholesterol-laden cells were equilibrated for 18 h in DMEM containing 5% LPDS, […] Sandoz ACAT inhibitor, and 0.3 mM Cpt-cAMP. After equilibration, the cells were washed twice with MEM-HEPES and incubated with 0.25 mL of efflux media for 4 h. At the end of the incubation time, the efflux media was removed and centrifuged (1200 rpm, 10 min) to remove floating cells, and the fluorescence intensity of 100 μL cell-free media was recorded using a Tecan GENios plate reader (excitation 485 nm, emission 535 nm). The obtained signals were background subtracted using the signal from unlabeled cells. The cell monolayers were rinsed twice with ice-cold MEM-HEPES and solubilized with 0.25 mL 1% cholic acid by shaking on a plate shaker for at least 4 h at room temperature; then the fluorescence intensity of 100 μL cell lysate was recorded and background subtracted using the signal from unlabeled cell lysate. […]

CC(C)C[C@@H]1NC(=O)[C@@H](Cc2c[nH]c3ccccc23)NC(=O)[C@H](CCCNC(=N)N)NC(=O)[C@@H](CCC(=O)O)NC(=O)[C@H](CCC(N)=O)NC(=O)[C@@H](CCC(=O)O)NC(=O)[C@H](CCCNC(=N)N)NC(=O)[C@@H](Cc2c[nH]c3ccccc23)NC1=O [SEQ ID NO:1, c[wLwReQeR]] (cyclo([dW]L[dW]R[dE]Q[dE]R))
toxicity based on the cellular morphology and density (J774 cells in the efflux assay): did not appear to be toxic
promotion of cellular cholesterol efflux (in words) (J774 cells, 2% apoB-depleted peptide-treated human plasma, 4 h, FIG. 2b): clear concentration dependency; also recorded: only marginally less effective than the α-helical apoA-I mimetic 4F
